{
  "source": "patent US7563882B2",
  "about": "“Polynucleotides encoding antibodies that bind to the C35 polypeptide” (University of Rochester, priority 2002, dated 2009)",
  "test_system": "EBV-B target cells",
  "experiment": "C35 peptide mediated T cell lysis of peptide pulsed EBV-B cells (Table 10)",
  "assay_type": "cell-based, human",
  "settings": "for % Lysis EBV-B cell Target: target pulsed with peptide",
  "key": {"[1]": {"settings": "T cell clones from donor with A3, A66, B8 and B41 HLA haplotypes"}, "[2]": {"settings": "T cell clone #72, donor (A2, A3; B18, B44)"}, "[3]": {"settings": "T cell clone #75, donor (A2, A3; B18, B44)"}, "[4]": {"settings": "T cell clone #104, donor (A2, A3; B18, B44)"}, "[5]": {"settings": "T cells from donor with A2, A3, B18, B44 HLA haplotypes raised against 9mer 22-30"}},
  "data": [
    {"substance": "QLVFSKLENGGFPYE [peptide 72-86]", "values": [
      {"measurement": "% Lysis EBV-B cell Target", "setting": "T cell clone #46, donor (A2, A3; B18, B44)", "result": 78.5, "unit": "%"},
      {"measurement": "lytic activity on EBV-B cells pulsed with peptide", "setting": "T cell clones from donor with A2, A3, B18, B44 HLA haplotypes", "result": 78.5, "unit": "%"}
    ]},
    {"substance": "GGFPYEKDL [peptide 81-89]", "values": [
      {"measurement": "lytic activity on EBV-B target cells pulsed with peptide", "setting": "[1]", "result": 40.3, "unit": "%"}
    ]},
    {"substance": "peptide 17-31: 15mer corresponding to amino acids 17-31 of C35 (SEQ ID NO:2) (VEPGSGVRIVVEYCE; listed as Homo sapiens)", "values": [
      {"measurement": "% Lysis EBV-B cell Target", "setting": "[2]", "result": 0.5, "unit": "%"},
      {"measurement": "% Lysis EBV-B cell Target", "setting": "[3]", "result": 1.2, "unit": "%"},
      {"measurement": "% Lysis EBV-B cell Target", "setting": "[4]", "result": 6.4, "unit": "%"},
      {"measurement": "lytic activity on EBV-B target cells pulsed with peptide", "setting": "[5]", "result": "minimal lysis"}
    ]},
    {"substance": "IEINGQLVF [peptide 67-75]", "values": [
      {"measurement": "lytic activity on EBV-B target cells pulsed with peptide", "setting": "[1]", "result": 54.9, "unit": "%"}
    ]},
    {"substance": "GVRIVVEYC [peptide 22-30]", "values": [
      {"measurement": "% Lysis EBV-B cell Target", "setting": "[2]", "result": 72.8, "unit": "%"},
      {"measurement": "% Lysis EBV-B cell Target", "setting": "[3]", "result": 56.8, "unit": "%"},
      {"measurement": "% Lysis EBV-B cell Target", "setting": "[4]", "result": 100.3, "unit": "%"},
      {"measurement": "lytic activity on EBV-B target cells pulsed with peptide", "setting": "[5]", "result": "very active"}
    ]}
  ]
}
